Data taken from the NIST ThermoML archive (doi:10.1021/je8007588).
± gives the expanded uncertainty stated by the source.

Settings: 298.15 K; 101.33 kPa; Liquid; Vibrating tube method

- mass density: 1123.6 ± 6.9 kg/m3
SMILES: CCCCCC[N+](C)(C)CCO.F[B-](F)(F)F [hexyl(2-hydroxyethyl)dimethylammonium tetrafluoroborate]
